# Assay results as given in patent US20080051454A1, “Compositions and methods for transient receptor potential vanilloid (TRPV) channel mediated treatments” (The Board of Trustees Operating Michigan State University, priority 2006, published 2008).
# Experiments:
# [1] = system: renal cortex and medulla; assay: Neonatal capsaicin treatment plus NS or HS diet: renal superoxide, SOD and NAD(P)H oxidase subunits; design: species or system rat
# Protocol: Enhanced oxidative stress in kidneys of salt-sensitive hypertension: role of sensory nerves (Am J Physiol Heart Circ Physiol 291: H3136-H3143, 2006). To determine the mechanism(s) underlying enhanced oxidative stress in kidneys of salt-sensitive hypertension, neonatal Wistar rats were given vehicle or capsaicin (CAP, 50 mg/kg sc) on the first and second days of life. After being weaned, male rats were assigned into four groups and treated for 2 wk with the following: vehicle+a normal sodium diet (NS, 0.4%, CON-NS), vehicle+a high-sodium diet (HS, 4%, CON-HS), CAP+NS (CAP−NS), and CAP+HS (CAP−HS). […] Plasma and urinary 8-iso-prostaglandin F2alpha levels increased by approximately 40% in CON-HS and CAP−HS rats compared with their respective controls fed a NS diet (P≦0.05), and these parameters were higher in CAP−HS compared with CON-HS rats. Superoxide (O2—) levels in the renal cortex and medulla increased by approximately 45% in CAP−HS compared with CON-HS, CON-NS, and CAP−NS rats (P≦0.05). […]
# [2] = system: WT and TRPV1−/− hearts; assay: OLDA-induced CGRP and SP release from hearts (radioimmunoassay); design: species or system mouse
# [3] = system: Wistar rats (Con-NS, Con-HS, Cap-NS, Cap-HS); assay: Natriuretic, diuretic and depressor effects of i.v. diuretics in control and capsaicin-pretreated rats on normal or high sodium diet; assay type: in vivo, rat; details: intravenous
# Protocol: (a) Urine flow rate. (b) Urine sodium excretion. […] (c) Mean arterial pressure. […] Vehicle; trichlormethiazide.
# (a) Urine flow rate. (b) Urine sodium excretion. […] (c) Mean arterial pressure.
# (a) Urine flow rate. (b) Urine sodium excretion. […] (c) Mean arterial pressure. […] Vehicle; amiloride.
# Design and methods Neonatal Wistar rats were treated with capsaicin or vehicle. Seven-week-old male rats were treated for 2 weeks with: vehicle plus a normal (Con-NS) or high (Con-HS) sodium diet, and capsaicin pretreatment plus a normal (Cap-NS) or high (Cap-HS) sodium diet. Mean arterial pressure (MAP), renal excretory function, and protein expression determined by Western blot were performed.
# [4] = system: high-salt plus capsaicin pretreated rats; details: rat, in vivo; cited from earlier work
# [5] = system: TRPV1−/− hearts; assay: Preconditioning (PC) protection against I/R in Langendorff hearts with receptor antagonists, TRPV1-null; design: species or system mouse; details: CAPZ 10^−7 M, CGRP8-37 10^−6 M, RP67580 10^−7 M
# Protocol: Male TRPV1 gene knockout (TRPV1-/-) strain B6.129S[…][…]^tm1Jul and matching control wild type (WT) strain C57BL/6J mice were used (Jackson Laboratory, Bar Harbor, Me.). Mice were heparinized (500 U/kg i.p.) and anesthetized with pentobarbital sodium (50 mg/kg i.p.). […] The distal end of the catheter was connected to a […] Performance Analyzer via a pressure transducer. Coronary flow (CF) was continuously measured using an ultrasonic flow probe placed in the aortic perfusion line. Hearts were paced at 400 bpm except during ischemic PC and sustained global ischemia to avoid inducing excessive ventricular tachyarrhythmia during reperfusion, and pacing was reinitiated 2 minutes after reperfusion. Left ventricular developed pressure (LVDP, peak systolic minuses LVEDP) and LV peak positive […]) during isovolumic contraction were used as indices of LV systolic function; LVEDP and the peak negative […] used as indices of LV diastolic function. […] Non-preconditioned hearts were time-matched perfused with the same duration as that of preconditioned hearts. Group 1: Controls. As normal controls (nonischemic), WT and TRPV1-/- hearts were perfused for 130 minutes. For I/R controls, WT and TRPV1-/- hearts were first perfused with Krebs-Henseleit buffer for 55 min (time-matched perfusion of the equilibration period plus the PC period), and subsequently subjected to 30 minutes of no-flow normothermic global ischemia followed by 40-minutes of reperfusion. Group 2: PC. […] The hearts were subjected to 30 minutes of no-flow normothermic global ischemia followed by 40-minutes of reperfusion as that of I/R control groups. Group 3: PC plus capsazepine (CAPZ). […] Two additional concentrations of CAPZ, 10^-6M and 10^-8 M, were used in WT hearts. An additional drug control was added. After a 20-minute equilibration period, WT hearts were perfused with CAPZ (10^-7 M) for 10 minutes without PC, followed by perfusion with Krebs-Henseleit buffer for 25 minutes (time-matched perfusion of the PC period) and then subjected to I/R. Group 4: […] […]
# [6] = system: hearts of WT mice; assay: Langendorff perfused heart, ischemia and reperfusion (I/R) with OLDA, wild type; design: species or system mouse; details: antagonist 1×10^−6 M
# Protocol: The following measurements were made on the two types of heart tissue: left ventricular end-diastolic pressure (LVEDP), left ventricular developed pressure (LVDP), coronary flow (CF), and left ventricular (LV) peak positive rate of pressure change/rate of time change (+dP/dt) were evaluated after I/R.
# [7] = system: Wistar rats fed a normal-salt (NS) or high-salt (HS) diet for 10 days; assay: MAP and HR responses to i.v. bolus NADA with or without antagonists in conscious rats; assay type: in vivo, rat; details: for prolonged depressor effect of NADA (decrease in MAP) after antagonist: NADA 4 mg/kg after CAPZ 3 mg/kg, CGRP8-37 infusion or SR141716A 3 mg/kg
# From the text: In brief: Wistar rats were fed a normal (NS, 0.4%) or high (HS, 4%) sodium diet for 10 days, then artery and vein were cannulated for measurement of mean arterial pressure (MAP) or for injection of drugs and collection of plasma.
# Animal Preparation: Male Wistar rats (7 weeks old, Charles River Laboratory, Wilmington, Mass.) were housed in the animal facility for 1 week before the experiment. Rats were grouped randomly and pair-fed a NS (0.4% of Na^+ by weight) or HS (4% of Na^+ by weight) diet for 10 days. The rat chow was purchased from Harlan Teklad Diets (Madison, Wis.). Drinking water was available ad libitum throughout the experiment. All protocols were in accordance with the National Institutes of Health Guidelines for the Care and Use of Laboratory Animals.
# (§1) Surgical Preparation Rats were anesthetized with ketamine and xylazine (80 and 4 mg/kg intraperitoneally, respectively) for cannulation or with urethane (1.5 g/kg intraperitoneally) for capsaicin administration. The left jugular vein, carotid and femoral artery were cannulated under anesthesia for injection of drugs or monitoring of mean arterial pressure (MAP) and heart rate (HR).
# Three hours after surgery, baseline MAP and its response to the above-mentioned drugs were obtained with the rats fully awake and unrestrained [Wang et al., Am J Physiol 2004; 287:H1868-H[874]. NADA was injected in increasing doses (1, 4, and 10 mg/kg intravenous bolus) in 3 subgroups of rats (each group for each dose). To determine the role of TRPV1 and CB 1 receptor in NADA-induced hypotension, NADA (4 mg/kg) was injected 10 minutes or 20 minutes after intravenous injection of CAPZ (3 mg/kg) or SR141716A (3 mg/kg), respectively.
# To examine the effect of CGRP8-37 on NADA-induced hypotension, CGRP8-37 was intravenously administered at the rate of 1 mg/kg/min for 2 minutes followed by injection at the rate of 0.5 mg/kg/min for 15 minutes. NADA (4 mg/kg) was injected 1 minute after CGRPs-37 administration. The effectiveness of the dose and time frame for CGRP8-37 injection was verified by blockade of the hypotensive response to capsaicin (30 μg/kg) (n=5).
# [8] = system: Wistar rats fed a NS or HS diet for 10 days; assay: MAP responses to i.v. capsaicin with or without CAPZ in urethane-anesthetized rats; assay type: in vivo, rat; details: CGRP8-37 infusion; capsaicin 30 μg/kg
# Protocol: as §1
# Each dose of injection was separated by a 30-minute interval. To determine the specificity of capsaicin, CAPZ (3 mg/kg) was administered 10 minutes before capsaicin injection in a separate group.
# [9] = system: male Wistar rats; assay: Depressor effect of 20-HETE analog DSR given IV, with or without antagonists; assay type: in vivo, rat; details: DSR 1 mg/kg with CAPZ 3 mg/kg, RP67580 4 mg/kg or CGRP 8-37 3 mg/kg
# [10] = system: WT hearts; assay: Preconditioning (PC) protection against I/R in Langendorff hearts with receptor antagonists, wild type; design: species or system mouse
# Protocol: Male TRPV1 gene knockout (TRPV1-/-) strain B6.129S[…][…]^tm1Jul and matching control wild type (WT) strain C57BL/6J mice were used (Jackson Laboratory, Bar Harbor, Me.). Mice were heparinized (500 U/kg i.p.) and anesthetized with pentobarbital sodium (50 mg/kg i.p.). […] The distal end of the catheter was connected to a […] Performance Analyzer via a pressure transducer. Coronary flow (CF) was continuously measured using an ultrasonic flow probe placed in the aortic perfusion line. Hearts were paced at 400 bpm except during ischemic PC and sustained global ischemia to avoid inducing excessive ventricular tachyarrhythmia during reperfusion, and pacing was reinitiated 2 minutes after reperfusion. Left ventricular developed pressure (LVDP, peak systolic minuses LVEDP) and LV peak positive […]) during isovolumic contraction were used as indices of LV systolic function; LVEDP and the peak negative […] used as indices of LV diastolic function. […] Non-preconditioned hearts were time-matched perfused with the same duration as that of preconditioned hearts. Group 1: Controls. As normal controls (nonischemic), WT and TRPV1-/- hearts were perfused for 130 minutes. For I/R controls, WT and TRPV1-/- hearts were first perfused with Krebs-Henseleit buffer for 55 min (time-matched perfusion of the equilibration period plus the PC period), and subsequently subjected to 30 minutes of no-flow normothermic global ischemia followed by 40-minutes of reperfusion. Group 2: PC. […] The hearts were subjected to 30 minutes of no-flow normothermic global ischemia followed by 40-minutes of reperfusion as that of I/R control groups. Group 3: PC plus capsazepine (CAPZ). […] Two additional concentrations of CAPZ, 10^-6M and 10^-8 M, were used in WT hearts. An additional drug control was added. After a 20-minute equilibration period, WT hearts were perfused with CAPZ (10^-7 M) for 10 minutes without PC, followed by perfusion with Krebs-Henseleit buffer for 25 minutes (time-matched perfusion of the PC period) and then subjected to I/R. Group 4: […] Two additional concentrations of CGRP8-37, 10^-5 M and 10^-7 M, were used in WT hearts. An additional drug control of CGRP8-37 was added as that of the CAPZ control group. Group 5: PC plus RP67580. To determine the role of endogenous SP during PC, hearts from WT and TRPV1-/-mice were perfused as that of CAPZ with RP67580 (10^-7 M), a selective neurokinin-1 (NK1) receptor antagonist. Two additional concentrations of RP67580, 10^-6 M and 10^-8 M, were used in WT hearts. An additional drug control of RP67580 was added as that of the CAPZ control group.
# [11] = system: WT hearts; assay: Lactate dehydrogenase (LDH) release during I/R; design: species or system mouse
# Protocol: Lactate dehydrogenase (LDH) release: In addition to the measurement of cardiac function, cardiac injury was assessed by measuring LDH release. Perfusion effluent was collected during the first 10 minutes to 20 minutes of I/R and stored at […] until analyzed. Total LDH levels were determined with the use of a CytoTox 96 assay (Promega). The data were expressed as absorbance units released per milliliter per minute per gram of heart wet tissues (Turnbull et al., Am J Physiol Heart Circ Physiol 290: […]-9, 2006; herein incorporated by reference).
compound,measurement,setting,value
COc1cc(C(C)=O)ccc1O [apocynin],O2— production in renal cortex after ex vivo incubation,"[1]; apocynin 0.1 mM, CAP−HS rats",2.83 0.38 nmol_min—1_mg dry wt—1
same,O2— production in renal medulla after ex vivo incubation,"[1]; apocynin 0.1 mM, CAP−HS rats",1.73 0.23 nmol_min—1_mg dry wt—1
same,effect on O2— production,"[1]; apocynin, CON-HS, CON-NS and CAP−NS rats",no significant effects
same,effect on enhanced O2— levels in cortex and medulla of CAP−HS rats,[1]; preincubation of renal tissues with apocynin,prevented
COc1ccc2c(c[n+](C)c3c4cc5c(cc4ccc23)OCO5)c1OC [chelerythrine],effect on OLDA-increased CGRP and SP release in WT hearts,[2],blocked
NS(=O)(=O)c1cc(C(=O)O)c(NCc2ccco2)cc1Cl [furosemide],effect on MAP (words),[3],"decreased MAP in Cap-HS but not in Cap-NS, Con-NS, and Con-HS rats"
same,time of peak urine flow rate (UFR) after injection,[3],5 min
same,effect on MAP (words),[3]; listed as Furosemide,decreased MAP in Cap-HS rats only
CCCCc1nc(Cl)c(CO)n1Cc1ccc(-c2ccccc2-c2nn[nH]n2)cc1 [losartan],effect on the impaired natriuretic response,[4],unable to prevent
same,prevention of the development of salt-induced hypertension,[4],prevented
NS(=O)(=O)c1cc2c(cc1Cl)NC(C(Cl)Cl)NS2(=O)=O (stereo not shown) [trichlormethiazide],effect on MAP (words),[3],"decreased MAP in Cap-HS but not in Cap-NS, Con-NS, and Con-HS rats"
same,time of peak urine flow rate (UFR) after injection,[3],10 min
same,urine flow / urine sodium excretion (words),[3],significantly increased
same,effect on MAP (words),[3]; listed as Trichlormethiazide,decreased MAP in Cap-HS rats only
same,urine flow / urine sodium excretion (words),[3]; listed as Trichlormethiazide,increased
CGRP8-37: selective calcitonin gene-related peptide (CGRP) receptor antagonist peptide,effect on these parameters in TRPV1−/− hearts,[5],no effect
same,effect on protective effect of OLDA in WT hearts,[6],abolished
same,effect of antagonist on NADA-induced depressor effect,[7]; NADA 4 mg/kg,abolished
same,prolonged depressor effect of NADA (decrease in MAP) after antagonist,[7]; HS diet,6±3 mmHg
same,prolonged depressor effect of NADA (decrease in MAP) after antagonist,[7]; NS diet,5±2 mmHg
same,effect on hypotensive response to capsaicin,[8],blockade
same,DSR induced-depressor effect after antagonist,[9],9.3±3.3 mmHg
same,effect on cardiac function in WT hearts without I/R,[10],no effect on cardiac function
same,"effect on PC-induced cardiac protection (LVEDP, LVDP, CF, +dP/dt, −dP/dt) in WT hearts","[10]; CAPZ 10^−7 M, CGRP8-37 10^−6 M, RP67580 10^−7 M",blocked PC-induced cardioprotective effects
same,effect on PC protection assessed by LDH levels after I/R in WT hearts,[11],abolished
